Consider eleven compounds from patent US9783537B2, “3-(4-ethylnylphenyl) pyridopyrimidinone compounds and process for preparation thereof useful as potential anticancer agents” (Council of Scientific & Industrial Research, priority 2013, dated 2017).

Structures are written as SMILES.

In the case of `C#Cc1ccc(-n2c(/C=C/c3cc(OC)ccc3OC)nc3ncccc3c2=O)cc1` [4n, (E)-2-(2,5-Dimethoxystyryl)-3-(4-ethynylphenyl)pyrido[2,3-d]pyrimidin-4(3H)-one], the melting point was in the range of 127 to 128 °C.
To `C#Cc1ccc(-n2c(/C=C/c3ccc(OC)c(F)c3)nc3ncccc3c2=O)cc1` [4h, (E)-3-(4-Ethynylphenyl)-2-(3-fluoro-4-methoxystyryl)pyrido[2,3-d]pyrimidin-4(3H)-one] belongs 124 to 125 °C.
Then `C#Cc1ccc(-n2c(/C=C/c3ccc(F)c(F)c3)nc3ncccc3c2=O)cc1` [4f, (E)-2-(3,4-Difluorostyryl)-3-(4-ethynylphenyl)pyrido[2,3-d]pyrimidin-4(3H)-one], with 123 to 124 °C.
`C#Cc1ccc(-n2c(/C=C/c3cccc(OC(F)(F)F)c3)nc3ncccc3c2=O)cc1` [4d, (E)-3-(4-Ethynylphenyl)-2-(3-(trifluoromethoxy)styryl)pyrido[2,3-d]pyrimidin-4(3H)-one] gave a melting point of 128 to 129 °C.
To `C#Cc1ccc(-n2c(/C=C/c3c(OC)cc(OC)cc3OC)nc3ncccc3c2=O)cc1` [4r, (E)-3-(4-Ethynylphenyl)-2-(2,4,6-trimethoxystyryl)pyrido[2,3-d]pyrimidin-4(3H)-one] belongs 124 to 125 °C.
`C#Cc1ccc(-n2c(/C=C/c3ccc(F)cc3)nc3ncccc3c2=O)cc1` [4a, (E)-3-(4-Ethynylphenyl)-2-(4-fluorostyryl)pyrido[2,3-d]pyrimidin-4(3H)-one]: the melting point was 123 to 124 °C.
In the case of `C#Cc1ccc(-n2c(/C=C/c3cc(OC)cc(OC)c3)nc3ncccc3c2=O)cc1` [4m, (E)-2-(3,5-Dimethoxystyryl)-3-(4-ethynylphenyl)pyrido[2,3-d]pyrimidin-4(3H)-one], the melting point lay in the range of 123 to 124 °C.
To `C#Cc1ccc(-n2c(/C=C/c3cccc4c3OCO4)nc3ncccc3c2=O)cc1` [4o, (E)-2-(2-(benzo[d][1,3]dioxol-4-yl)vinyl)-3-(4-ethynylphenyl)pyrido[2,3-d]pyrimidin-4(3H)-one] belongs 125 to 126 °C.
`C#Cc1ccc(-n2c(/C=C/c3ccc(O)c(OC)c3)nc3ncccc3c2=O)cc1` [4k, (E)-3-(4-Ethynylphenyl)-2-(4-hydroxy-3-methoxystyryl)pyrido[2,3-d]pyrimidin-4(3H)-one] returned a melting point of 123 to 124 °C.
Then `C#Cc1ccc(-n2c(/C=C/c3c[nH]c4ccc(OC)cc34)nc3ncccc3c2=O)cc1` [4v, (E)-3-(4-ethynylphenyl)-2-(2-(5-methoxy-1H-indol-3-yl)vinyl)pyrido[2,3-d]pyrimidin-4(3H)-one], with 114 to 115 °C.
Then `C#Cc1ccc(-n2c(/C=C/c3ccc4[nH]ccc4c3)nc3ncccc3c2=O)cc1` [4u, (E)-2-(2-(1H-Indol-5-yl)vinyl)-3-(4-ethynylphenyl)pyrido[2,3-d]pyrimidin-4(3H)-one], with 123 to 124 °C.

The term melting point denotes the temperature, or range, at which the solid turns liquid.
